Legend:
[1] = biological target: T1, MLLT3 (Homo sapiens, UniProt P42568); test: AlphaScreen assay, MLLT3; assay type: binding; details: Figure 1
T1 construct: made in house; host or cells: E. coli Rosetta
Protocol: Figure 1 Identified hit MLLT1/3 inhibitor compound 1.
(§1) II.IV Protein Expression and Purification
Human bromodomains were cloned, expressed and purified as previously described. The cloning, expression and purification of human YEATS domains are described as follows; Sequences for the wild type YEATS domains of MLLT1, MLLT3, GAS41 and YEATS2 were cloned into expression vectors (Table S1). E. coli Rosetta cells were grown in TB medium at 37°C. Overexpression was induced after five hours by addition of IPTG to a final concentration of 0.4 mM and cells were incubated at 17°C overnight. Cells were harvested by centrifugation and the cell pellet was resuspended in cold binding buffer (50 mM Tris at pH 7.5, 500 mM NaCl, 20 mM imidazole, 2 mM DTT) on a magnetic stirring plate at 4°C. The suspension was lysed using an Avestin EmulsiFlex-C5 homogeniser (1 pass without pressure, four passes with pressure between 1000-1500 bar). The lysate was clarified via centrifugation at 16,000 rpm at 4°C for 1 hour (JLA-16 rotor in Beckmann Coulter Avanti J-26S XP centrifuge). The supernatant was loaded onto a standard NiNTA column (HisTrap FF, 5 ml, GE Healthcare Lifesciences) on an ÄKTAxpress system (GE). […] Protein concentration was quantified via extinction at […] (NanoDrop ND-1000 Spectrophotometer) and protein identity was verified via SDS-PAGE and LC/MS. […]

[2] = biological target: T2, MLLT1 YD (Homo sapiens, UniProt Q03111); test: AlphaScreen (AS) assay, MLLT1 YEATS domain; assay type: binding
T2 construct: made in house; host or cells: E. coli Rosetta
T2 sequence (Q03111 1-138 limits assumed): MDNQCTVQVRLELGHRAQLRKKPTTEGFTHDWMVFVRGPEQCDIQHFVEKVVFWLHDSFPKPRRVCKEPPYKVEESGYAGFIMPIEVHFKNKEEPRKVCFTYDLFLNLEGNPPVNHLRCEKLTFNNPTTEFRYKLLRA
Protocol: as §1
Human bromodomains were cloned, expressed and purified as previously described. The cloning, expression and purification of human YEATS domains are described as follows; Sequences for the wild type YEATS domains of MLLT1, MLLT3, GAS41 and YEATS2 were cloned into expression vectors (Table S1). E. coli Rosetta cells were grown in TB medium at 37°C. Overexpression was induced after five hours by addition of IPTG to a final concentration of 0.4 mM and cells were incubated at 17°C overnight. Cells were harvested by centrifugation and the cell pellet was resuspended in cold binding buffer (50 mM Tris at pH 7.5, 500 mM NaCl, 20 mM imidazole, 2 mM DTT) on a magnetic stirring plate at 4°C. The suspension was lysed using an Avestin EmulsiFlex-C5 homogeniser (1 pass without pressure, four passes with pressure between 1000-1500 bar). The lysate was clarified via centrifugation at 16,000 rpm at 4°C for 1 hour (JLA-16 rotor in Beckmann Coulter Avanti J- […]
The supernatant was loaded onto a standard NiNTA column (HisTrap
FF, 5 ml, GE Healthcare Lifesciences) on an ÄKTAxpress system (GE). After washing with binding buffer, the target protein was eluted at 300 mM imidazole. The eluted peak fractions were pooled and concentrated to 5 ml (Amicon concentrators, 10 kDa molecular weight cut off (MWCO)) and then separated via size exclusion chromatography (buffered with 20 mM Tris at pH 7.5, 500 mM NaCl, 2 mM DTT) using a GE Superdex 75 column on an […]
(NanoDrop ND-1000 Spectrophotometer) and protein identity was verified via SDS-PAGE and LC/MS. Pooled fractions were then again concentrated to at least 2 mg/ml and stored at […]
(1 picture or pasted object on this page, not shown here)

[3] = biological target: T3, endogenous MLLT1 in MV4;11 cells (Homo sapiens, UniProt Q03111); test: Cellular thermal shift assay (CETSA), MV4;11 cells; assay type: cell-based; details: up to 10 μM
T3 construct: with endogenous MLLT1 in MV4;11 cells; endogenous in cells; host or cells: MV4;11
Protocol: (§2) Supplementary Table 2. Thermal stabilisation of compound 1, 92 and Bromosporine with recombinant human bromodomain proteins. *50 µM compound concentration. †10 µM compound […]
(§3) II.VIII Cellular Thermal Shift Assay[6]
(§4) HEK293 and MV4;11 cells were cultured at 37 °C in a humidified 5% CO2 atmosphere in DMEM Medium containing 10% FBS, respectively. Cells were grown until approximately […]
(§5) DMSO final concentrati on) for 30 minutes. Cells were then collected, washed with PBS, transferred in PCR tubes, and pelleted by centrifugation (300 g, 3 min, RT.) The PBS was removed, and the cell pellets heated at the indicated temperature for 3 minutes in a PCR machine (UNO96 , VMR) and then placed on ice. Lysis buffer (50 mM Tris pH 7.5, 0.8% v/v NP-40, 5% v/v glycerol, 1.5 mM MgCl2, 100 mM NaCl, 25 mM NaF, 1mM Na3VO4, 1mM PMSF, 1mM DTT, 10 μg/mL TLCK, 1 μg/mL Leupeptin, 1 μg/mL Aprotinin, 1 μg/mL soy bean trypsin, ≥250 units/ mL Benzonase) was added and the cells lysed by 3 freeze -thaw cycles in liquid nitrogen. Aggregated proteins were removed by centrifugation (17000 g, 20 min, 4 °C) and the protein concentration of the retained soluble fraction determined. 4× sample loading buffer (Bio-Rad) containing 20% v/v DTT was added and samples were heated for 6 min at 90 °C prior to separation by SDS -PAGE. […]

[4] = biological target: T4, YEATS2 (Homo sapiens, UniProt Q9ULM3); test: AlphaScreen selectivity screen, YEATS2; assay type: binding
T4 construct: made in house; host or cells: E. coli Rosetta
Description: (§6) IC50 (µM) IC50 (µM) IC50 (µM) IC50 (µM) (µM) (µM) (µM)
(§7) Supplementary Table 1. […]

[5] = biological target: T5, endogenous MLLT1 in HEK293 cells (Homo sapiens, UniProt Q03111); test: Cellular thermal shift assay (CETSA), HEK293 cells; assay type: cell-based; details: Western blot
T5 construct: endogenous in cells; host or cells: HEK293
Protocol: as §2, §3, §4, §5

[6] = biological target: T6, YEATS4 (Homo sapiens, UniProt O95619); test: AlphaScreen selectivity screen, YEATS4; assay type: binding
T6 construct: made in house; host or cells: E. coli Rosetta
Description: as §6, §7

T4 sequence (Q9ULM3 200-345 limits assumed): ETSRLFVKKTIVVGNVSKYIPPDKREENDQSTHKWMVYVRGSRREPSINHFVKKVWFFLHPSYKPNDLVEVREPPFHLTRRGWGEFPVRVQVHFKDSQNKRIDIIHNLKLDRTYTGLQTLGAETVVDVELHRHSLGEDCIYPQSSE
T1 sequence (P42568 1-138 limits assumed): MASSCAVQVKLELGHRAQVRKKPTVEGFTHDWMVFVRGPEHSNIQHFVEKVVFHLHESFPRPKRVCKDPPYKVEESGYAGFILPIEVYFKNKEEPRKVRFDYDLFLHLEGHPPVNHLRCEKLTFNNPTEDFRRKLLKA
T5 sequence (Q03111 whole entry): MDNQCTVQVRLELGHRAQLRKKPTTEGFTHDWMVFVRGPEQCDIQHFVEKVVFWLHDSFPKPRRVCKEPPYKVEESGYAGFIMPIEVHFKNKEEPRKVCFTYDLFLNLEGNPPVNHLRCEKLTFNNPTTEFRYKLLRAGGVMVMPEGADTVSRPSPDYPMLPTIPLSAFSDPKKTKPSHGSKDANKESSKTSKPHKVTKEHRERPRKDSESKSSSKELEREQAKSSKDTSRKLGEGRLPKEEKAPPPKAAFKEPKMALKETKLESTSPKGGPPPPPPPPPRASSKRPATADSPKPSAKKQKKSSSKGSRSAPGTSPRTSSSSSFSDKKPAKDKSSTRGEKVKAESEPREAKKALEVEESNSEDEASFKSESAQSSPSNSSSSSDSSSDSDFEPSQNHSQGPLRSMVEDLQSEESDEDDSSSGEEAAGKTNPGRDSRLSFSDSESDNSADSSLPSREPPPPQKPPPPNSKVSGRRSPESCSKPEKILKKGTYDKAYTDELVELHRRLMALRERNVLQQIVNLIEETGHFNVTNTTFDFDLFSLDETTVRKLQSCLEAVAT
T3 sequence (Q03111 whole entry): as above
T6 sequence (O95619 15-158 limits assumed): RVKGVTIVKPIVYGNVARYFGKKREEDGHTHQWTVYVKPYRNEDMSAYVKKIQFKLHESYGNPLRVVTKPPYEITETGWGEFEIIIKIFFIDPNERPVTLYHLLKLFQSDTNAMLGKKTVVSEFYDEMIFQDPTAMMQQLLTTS

Compound	IC50 [1] [nM]	IC50 [2] [nM]	thermal stabilisation of MLLT1 (CETSA) [3]	IC50 [4] [nM]	heat shock stabilisation of endogenous MLLT1 (CETSA) [5]	IC50 [6] [nM]
COC(=O)c1ccc(C(=O)Nc2ccc3[nH]c(CN4CCCCC4)nc3c2)cc1 [Compound 1]	1000	2100 ± 780	–	–	–	–
C[C@H]1CCCN1Cc1nc2cc(NC(=O)c3ccc4c(cnn4C)c3)ccc2[nH]1 [Compound 92]	–	–	stabilisation of MLLT1	> 10000	stabilisation	> 10000

Source: paper PMC6348381, “Discovery of an MLLT1/3 YEATS Domain Chemical Probe” (Angewandte Chemie (International Ed. in English), 2018)
